Measurements reported in patent US20220112309A1, “BISPECIFIC ANTIBODY AGAINST CD3 AND CD20 IN COMBINATION THERAPY FOR TREATING DIFFUSE LARGE B-CELL LYMPHOMA” (GENMAB A/S, priority 2020, published 2022).

Legend:
SU-DHL-4 [1] = assay: in vitro T-cell activation assay, T cells incubated with SU-DHL-4 cells; type: cell-based, human; details: SU-DHL-4 target cells, 48 hours
Procedure: (§1) Briefly, human Burkitt lymphoma (Raji) and DLBCL (SU-DHL-4) cell lines were used as target cells. Cells were cultured in culture medium (RPMI 1640 with HEPES and L-Glutamine supplemented with 10% heat-inactivated donor bovine serum with iron, and 1% [v/v] penicillin/streptomycin) to which 2 mM L-glutamine and 1 mM sodium pyruvate were added, at 37° C., 5% CO2. T cells, isolated from human healthy donor buffy coats (Sanquin) by negative selection using the RosetteSep™ Human T Cell Enrichment Cocktail (Stemcell Technologies), followed by density centrifugation over a Ficoll gradient, both according to the manufacturer's instructions, were used as effector cells. Isolated cells were washed twice in phosphate buffered saline (PBS) and counted using acridine orange/propidium iodide (AO/PI) viability staining solution (Nexcelom Bioscience) on a Cellometer® Auto 2000 Cell Viability Counter. […] B-cell viability and T-cell activation were measured by flow cytometry (count of CD22-positive cells; expression of the T-cell activation markers CD69, CD25, programmed cell death protein 1 (PD-1), and CD107 [lysosomal associated membrane protein 1; LAMP-1] on CD4+ and CD8+ T cells). Absolute cell numbers were determined by adding Accucheck Counting beads (100 μL/well) (Thermofisher) and calculated as follows: […]

Raji [2] = assay: in vitro T-cell activation assay, T cells incubated with Raji cells; type: cell-based, human; details: Raji target cells, 48 hours
Procedure: as §1

R/R B-NHL = assay: ongoing clinical trial of epcoritamab monotherapy (NCT03625037); type: in vivo
Text: Epcoritamab as monotherapy is currently in a clinical trial for the treatment of relapsed/refractory (R/R) B-NHL (ClinicalTrials.gov Identifier: NCT03625037).

Raji [3] = type: cell-based; details: 48 hours
Procedure: (§2) Briefly, human Burkitt lymphoma (Raji) and DLBCL (SU-DHL-4) cell lines were used as target cells. Cells were cultured in culture medium (RPMI 1640 with HEPES and L-Glutamine supplemented with 10% heat-inactivated donor bovine serum with iron, and 1% [v/v] penicillin/streptomycin) to which 2 mM L-glutamine and 1 mM sodium pyruvate were added, at 37° C., 5% CO2. T cells, isolated from human healthy donor buffy coats (Sanquin) by negative selection using the RosetteSep™ Human T Cell Enrichment Cocktail (Stemcell Technologies), followed by density centrifugation over a Ficoll gradient, both according to the manufacturer's instructions, were used as effector cells. Isolated cells were washed twice in phosphate buffered saline (PBS) and counted using acridine orange/propidium iodide (AO/PI) viability staining solution (Nexcelom Bioscience) on a Cellometer® Auto 2000 Cell Viability Counter. […] B-cell viability and T-cell activation were measured by flow cytometry (count of CD22-positive cells; expression of the T-cell activation markers CD69, CD25, programmed cell death protein 1 (PD-1), and CD107 [lysosomal associated membrane protein 1; LAMP-1] on CD4+ and CD8+ T cells). Absolute cell numbers were determined by adding Accucheck Counting beads (100 μL/well) (Thermofisher) and calculated as follows:
(§3) Correction factor=([bead count1+bead count2]/average bead countplate)
(§4) Absolute cell number=[cell countsample/correction factor] • The percentage cytotoxicity was calculated as follows:
(§5) % cytotoxicity=100−([absolute cell numbersample/absolute cell numberno antibody]×100%)

SU-DHL-4 [4] = type: cell-based; details: SU-DHL-4 cells, 48 hours
Procedure: as §2, §3, §4, §5

[5] = epcoritamab 0.01 pg/mL-100 ng/mL, flow cytometry
[6] = gemcitabine 1 nM, oxaliplatin 0.3 μM
[7] = epcoritamab alone 0.01 pg/mL-100 ng/mL
[8] = gemcitabine and/or oxaliplatin at EC30 concentrations, with or without epcoritamab

## epcoritamab: IgG1 bispecific CD3xCD20 antibody; heavy and light chain pairs of SEQ ID NOs: 24 and 25, and 26 and 27; CAS 2134641-34-0
SU-DHL-4 [1]; [5]
  T-cell activation (upregulation of CD69, CD25, PD-1, and LAMP-1 expression): concentration-dependent activation of both CD4+ (data not shown) and CD8+ T cells
SU-DHL-4 [1]; [6]
  Epcoritamab-induced T-cell activation in the presence of gemcitabine, oxaliplatin, or the combination: not affected
Raji [2]; [5]
  T-cell activation (upregulation of CD69, CD25, PD-1, and LAMP-1 expression): concentration-dependent activation of both CD4+ (data not shown) and CD8+ T cells
Raji [2]; [6]
  Epcoritamab-induced T-cell activation in the presence of gemcitabine, oxaliplatin, or the combination: not affected
R/R B-NHL; human, in vivo
  dose-limiting toxicities: no dose-limiting toxicities reported
R/R B-NHL; monotherapy, R/R B-NHL patients, preliminary data
  tolerated dose: tolerated at doses up to at least 48 mg, including 60 mg
Raji [3]; [7]
  T-cell-mediated cytotoxicity (decrease in the number of viable B cells): concentration-dependent T-cell-mediated cytotoxicity
SU-DHL-4 [4]; [7]
  T-cell-mediated cytotoxicity (decrease in the number of viable B cells): concentration-dependent T-cell-mediated cytotoxicity

## Nc1ccn(C2OC(CO)C(O)C2(F)F)c(=O)n1 (stereo not shown) [gemcitabine, 4-amino-1-[3,3-difluoro-4-hydroxy-5-(hydroxymethyl)oxolan-2-yl]-1,2-dihydropyrimidin-2-one, reference compound]
Raji [3]; [8]
  cytotoxicity of B cells: induced cytotoxicity of B cells
SU-DHL-4 [4]; [8]
  cytotoxicity of B cells: induced cytotoxicity of B cells
